Data published in US5140025A, “Thienotricylene for the treatment of bronchial diseases” (BYK Gulden Lomberg Chemische Fabrik GmbH, priority 1987, dated 1992).

Tests used:
[1] = test system: acetylcholine-induced bronchospasm; experiment: Acetylcholine-induced bronchospasm in anaesthetised, spontaneously breathing guinea pigs, intravenous administration; format: in vivo, guinea pig (Pirbright White); conditions: for Mean bronchospasmolytic activity, percentage increase of Vmaxe vs control spasm / Mean bronchospasmolytic activity, percentage increase of tidal volume (TV) vs control spasm: 0-60 min; for Mean bronchospasmolytic activity, percentage increase of Vmaxe vs control spasm / Mean bronchospasmolytic activity, percentage increase of tidal volume (TV) vs control spasm / Bronchospasmolytic activity, percentage increase of Vmaxe vs control spasm / Bronchospasmolytic activity, percentage increase of tidal volume (TV) vs control spasm: x±SEM, N=10; for Bronchospasmolytic activity, percentage increase of Vmaxe vs control spasm / Bronchospasmolytic activity, percentage increase of tidal volume (TV) vs control spasm: at 60 min
Excerpt: Effect of Intravenously Administered Telenzepine on Acetylchline-Induced Bronchospasms in Anaesthetised, Spontaneously Breathing Guinea Pigs
Method for simultaneously recording pharmacodynamic or toxic effects on interior sensitive receptors and the respiration of guinea pigs (U. Kilian, E. Muller, E. Ch. Dittmann and J. Hamacher, Arzneim.-Forsch. 28, 1699-1708, 1978).
Pirbright White, Interfauna (Tuttlingen), 350-450 g, male.
Ethylurethane 1.2 g/kg i.p. as 12.5% aqueous solution.
Pneumotachogram: Maximum flow velocities of the respiratory air during expiration (Vmaxe, "peak flow"), tidal volume (TV).
Acetylcholine as spasmogen, 0.2-0.3 μmol/kg i.v., dissolved in 0.9% NaCl.
-10 min control spasm, 0 min administration of substance, +2, +10, +20, +30, +60 min test spasms.
Determination of the effect of telenzepine on the parameters (mean and standard error of mean, n=10) and calculation of the bronchospasmolytic activity from this as percentage inhibition of the acetylcholine-induced decrease of Vmaxe and TV by means of time/effect curves. Computation of a dose/response curve of the mean bronchospasmolytic activity during the observation time (0-60 min) from the areas under the time/effect curves and reading of 1 h ED50 values. Determination of a dose/response curve of the bronchospasmolytic activity at time 60 min and reading ED50 values.

M1 receptor (ganglionic) = experiment: Receptor affinity, electrically stimulated rabbit vas deferens in organ bath; conditions: vas deferens of the rabbit, agonist McN-A-343, Schild slope normalised to 1.00; listed as Compound 1
Protocol: Isometric contractions (HSE force transducer, K-30; tilt and zones, BD-9 chart recorder) of isolated seminal duct sections of rabbits (male, white New Zealand rabbits, 2.5-3.5 kg) were recorded in an organ bath (10 ml, 31° C., gassing with carbogen, initial tension of the organs 0.75 g) under electrical stimultion (HSE stimulator; hook-shaped Pt electrode 1 cm below the water surface of the bath; 30 V, 0.5 ms, 0.05 Hz). After an equilibration time of 30 minutes, cumulative dose/response curves of McN-A-343 (10^-7 -2×10^-6 M) were recorded simultaneously on 8 organ sections in each case (control curves), using the technique described by van Rossum (1963). After 3 control curves, a fixed concentration of the agonist (for example 5×10^-7, 10^-6, 3×10^-6, 10^-5 or 3×10^-5 M) per organ section was applied and, after stabilisation of the effect, increasing concentrations of the agonist to be tested were added. The nutrient solution used had the following composition (mM): NaCl 118, KCl 4.7, CaCl2 ·2H2 O 2.5, MgSO4 ·7H2 O 0.6, KH2 PO 4 1.2, NaHCO3 25.0 and glucose 11.1. In order to block α2 -adrenoreceptors, the nutrient solution additionally contained 10^-6 M yohimbine.

M2 receptor (cardiac) = target: T1, M2 receptor (cardiac) (Rattus norvegicus, UniProt P10980); experiment: Receptor affinity, electrically stimulated left atrium of the rat; conditions: agonist carbachol, Schild slope normalised to 1.00, read-out: pA2 ± SEM, M2 receptor (cardiac) (converted)
T1 construct: isolated, left atria of rats (male 250-350 g); from tissue; host or cells: rat left atrium (isolated, male rats 250-350 g)
T1 sequence (P10980 1-466): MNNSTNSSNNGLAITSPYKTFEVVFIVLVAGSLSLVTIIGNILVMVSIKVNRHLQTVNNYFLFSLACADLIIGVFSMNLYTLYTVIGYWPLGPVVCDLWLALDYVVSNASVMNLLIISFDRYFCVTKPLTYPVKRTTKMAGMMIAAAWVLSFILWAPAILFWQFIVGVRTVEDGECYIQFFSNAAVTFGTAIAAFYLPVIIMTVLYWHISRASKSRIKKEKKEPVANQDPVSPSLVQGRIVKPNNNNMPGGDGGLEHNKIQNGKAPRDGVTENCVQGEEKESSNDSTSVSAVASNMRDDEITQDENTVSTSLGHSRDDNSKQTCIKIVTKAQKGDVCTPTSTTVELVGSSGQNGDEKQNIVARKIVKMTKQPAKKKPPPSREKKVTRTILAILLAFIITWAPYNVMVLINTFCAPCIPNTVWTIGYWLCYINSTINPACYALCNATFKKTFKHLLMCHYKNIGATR
Excerpt: The affinity of (±)-4,9-dihydro-3-methyl-4-[(4-methyl-1-piperazinyl)-acetyl]-10H-thieno[3,4-b][1,5]benzodiazepin-10-one (telenzepine, compound 2 in Table 7) and its conformers [(+)-enantiomer=compound 1, (-)-enantiomer=compound 3] to muscarinic M1 (ganglionic type) and M2 (cardiac type) receptors was investigated by the following methods:
Electrically Stimulated Left Atrium of the Rat (Eltze et al., 1985, Europ. J. Pharmacol. 112, 211-224).
Isometric contractions (HSE force transducer, K-30; Watanabe Linear Corder Mark 5) of isolated, left atria of rats (male 250-350 g) were recorded in an organ bath (10 ml, Tyrode nutrient solution, 31° C., gassing with carbogen, initial tension of the organs 0.25 g) under electrical stimulation (HSE stimulator; hook-shaped Pt electrodes at the base of the bath and immersed, annular Pt electrodes 1 cm below the water surface of the bath; 7 V, 3 ms, 2 Hz). After an equilibration time of 30 minutes, cumulative dose/response curves of carbachol (10^-8 -10^-6 M, in the presence of the antagonist also up to 10^-5 or 10^-4 M) were recorded simultaneously on 4 organs in each case by the technique described by van Rossum (1963). The substance to be tested was added to the organ baths 20 minutes before application of the carbachol. The pauses between the individual dose/response curves were 30-45 minutes.
The Tyrode nutrient solution used had the following composition (mM): NaCl 130, KCl 2.0, CaCl2 ·2H2 O 1.8, MgCl2 ·6H2 O 0.98, NaHCO3 12.0, NaH2 PO4 0.42 and glucose monohydrate 5.6. pA2 values (-log of the molar dissociation constants of the competitive antagonist-receptor complex) were determined by linear regression using the Schild plot: pA2 =-log [B/(x-1)], (Arunlakshana and Schild, 1959).
Table 7 below gives pA2 values of the substances, for which the slope of the regression lines for theoretically competitive antagonism have been normalised to 1.00 (Tallarida et al., 1979).

[2] = test system: modified Shay rat (lesion formation and acid secretion); experiment: Antiulcerogenic and secretion-inhibiting action on the modified Shay rat; format: in vivo
Excerpt: The excellent gastric protective action and the gastric secretion-inhibiting action of the compound (+)-4,9-dihydro-3-methyl-4-[(4-methyl-1-piperazinyl)-acetyl]-10H-thieno[3,4-b][1,5]benzodiazepin-10-one (=compound 1 in Table 8 below) in comparison with the corresponding (-)-enantiomer (=compound 3) and with the racemate (=compound 2) can be detected in studies on the modified Shay rat. The effect of the stated compounds after intravenous (i.v.) administration on the formation of lesions and the acid secretion in the modified Shay rat is shown in Table 8 below.
Ulcers are provoked in rats (female, 180-200 g, 4 animals per cage on high grids) which have fasted for 24 hours, by pylorus ligature (under diethyl ether anaesthesia) and oral administration of 100 mg/10 ml/kg of acetylsalicylic acid. The substances to be tested are administered intravenously (1 ml/kg) directly after the pylorus ligature. The wound is closed by means of Michel clamps. 4 hours afterwards, the animals are sacrificed under anaesthesia with ether by Atlas dislocation, and resection of the stomach.
The stomach is opened along the greater curvature and clamped to a cork sheet, the amount of secreted gastric juice (volume) is determined first and its HCl content (titration with sodium hydroxide solution) being determined subsequently. The number and size (=diameter) of ulcers present are determined using a stereomicroscope, under 10×magnification. The product of severity (according to the following point scale) and number of ulcers serves as an individual lesion index.
The reduction in the means lesion index of each treated group compared with the control group (=100%) serves as a measure of the antiulcerogenic effect. The ED50 is the dose which reduces the mean lesion index or the HCl secretion by 50% compared with the control.

[3] = at time 60 min after administration, 60 min
[4] = modified Shay rat, i.v., interpolated dose, 4 h, N=24, listed as 1, 240 min

## Cc1scc2c1N(C(=O)CN1CCN(C)CC1)c1ccccc1NC2=O [(+)-telenzepine, (+)-4,9-dihydro-3-methyl-4-[(4-methyl-1-piperazinyl)-acetyl]-10H-thieno[3,4-b][1,5]benzodiazepin-10-one]
[1]; 0.03 μmol/kg i.v.
  Mean bronchospasmolytic activity, percentage increase of Vmaxe vs control spasm: 13 ± 4%
  Mean bronchospasmolytic activity, percentage increase of tidal volume (TV) vs control spasm: 17 ± 4%
  Bronchospasmolytic activity, percentage increase of Vmaxe vs control spasm: 19 ± 6%
  Bronchospasmolytic activity, percentage increase of tidal volume (TV) vs control spasm: 23 ± 7%
[1]; 0.05 μmol/kg i.v.
  Mean bronchospasmolytic activity, percentage increase of Vmaxe vs control spasm: 21 ± 4%
  Mean bronchospasmolytic activity, percentage increase of tidal volume (TV) vs control spasm: 25 ± 5%
  Bronchospasmolytic activity, percentage increase of Vmaxe vs control spasm: 35 ± 7%
  Bronchospasmolytic activity, percentage increase of tidal volume (TV) vs control spasm: 39 ± 7%
[1]; 0.1 μmol/kg i.v.
  Mean bronchospasmolytic activity, percentage increase of Vmaxe vs control spasm: 57 ± 5%
  Mean bronchospasmolytic activity, percentage increase of tidal volume (TV) vs control spasm: 62 ± 5%
  Bronchospasmolytic activity, percentage increase of Vmaxe vs control spasm: 61 ± 6%
  Bronchospasmolytic activity, percentage increase of tidal volume (TV) vs control spasm: 64 ± 7%
[1]; 0.5 μmol/kg i.v.
  Mean bronchospasmolytic activity, percentage increase of Vmaxe vs control spasm: 87 ± 3%
  Mean bronchospasmolytic activity, percentage increase of tidal volume (TV) vs control spasm: 92 ± 3%
  Bronchospasmolytic activity, percentage increase of Vmaxe vs control spasm: 95 ± 4%
  Bronchospasmolytic activity, percentage increase of tidal volume (TV) vs control spasm: 100 ± 4%
[1]; 1 μmol/kg i.v.
  Mean bronchospasmolytic activity, percentage increase of Vmaxe vs control spasm: 82 ± 3%
  Mean bronchospasmolytic activity, percentage increase of tidal volume (TV) vs control spasm: 85 ± 3%
  Bronchospasmolytic activity, percentage increase of Vmaxe vs control spasm: 88 ± 4%
  Bronchospasmolytic activity, percentage increase of tidal volume (TV) vs control spasm: 88 ± 4%
[1]; [3]
  ED50 of bronchospasmolytic activity, TV: 0.07 μmol/kg i.v.
  ED50 of bronchospasmolytic activity, Vmaxe: 0.07 μmol/kg i.v.
[1]; i.v.
  dose range of dose- and time-dependent inhibition of acetylcholine-induced bronchospasm: 0.03-1 μmol/kg i.v.
[1]; i.v., observation period
  persistence of maximum effect: ≥ 1 h
[1]; mean activity 0-60 min, 60 min
  ED50 of mean bronchospasmolytic activity, TV: 0.08 μmol/kg i.v.
  ED50 of mean bronchospasmolytic activity, Vmaxe: 0.1 μmol/kg i.v.
M1 receptor (ganglionic)
  pA2 ± SEM, M1 receptor (ganglionic): 9.12 ± 0.08
M2 receptor (cardiac)
  Kb: 21.4 nM
[2]; [4]
  Gastric protective action, reduction of lesion index, about ED50: ~0.01 mg/kg i.v.
  Inhibition of acid secretion, reduction of HCl secretion, about ED50: ~0.085 mg/kg i.v.
[2]; warm-blooded animals
  protective action with respect to stomach and intestine, doses compared with acid secretion-inhibiting doses: observed with the administration of doses which are below the doses which inhibit acid secretion
